These are literature values, as cited in US20170128486A1, “CONSUMABLE COMPOSITIONS AND USES THEREOF FOR ALLEVIATING UNDESIRABLE PHYSIOLOGICAL EFFECTS SYSTEMS” (ImmunoL0G1C R&D Inc., priority 2015, published 2017).

Values after ≈ are worked out from the molar mass of the structure shown.

One may read the solubility as how much of the substance goes into solution per volume. Turning to `N[C@@H](Cc1c[nH]c2ccc(O)cc12)C(=O)O` [5-hydroxytryptophan], the solubility (in water) was 10000 µg/mL (≈ 45.4 mM). As for `N[C@@H](Cc1c[nH]c2ccccc12)C(=O)O` [L-tryptophan], the “solubility in water” value is given as “poorly soluble in water”.
